Results reported in patent US20200289520A1, “COMPOSITION AND METHOD FOR TREATING PERIPHERAL T-CELL LYMPHOMA AND CUTANEOUS T-CELL LYMPHOMA” (Rhizen Pharmaceuticals SA, priority 2017, published 2020).
“Also recorded” adds a separate entry of the source.

How the values were obtained:
[1] = system: caspase-3; experiment: Induction of caspase 3 in T-lymphoma cell lines; format: cell-based; details: 48 h incubation, fluorimetric; FIG. 3
Procedure: Cells (Jurkat, MOLT-4, CCRF-CEM, HuT-78 and HuT-102) were incubated with desired concentrations of Compound (A) for 48 h. An equal number of cells per well (0.3×10^6 cells) were used. Increase in apoptosis manifested by an elevation in caspase-3 levels was determined using a Caspase-3 kit from Millipore. Induction of Caspase 3 by Compound A was measured fluorimetrically.

[2] = system: MOLT-4 (human T lymphoblast cell line) xenograft; experiment: MOLT-4 subcutaneous mouse xenograft model; format: in vivo
Procedure: The anti-tumor effect of Compound (A) was determined in a MOLT-4 (representing human T lymphoblast cell line) subcutaneous mouse xenograft model. Briefly, 10^6 cells were injected into the flank region. Mice were randomized according to body weight into […] groups of five. A week after tumor cell injection, mice either received the vehicle, oral administration of Compound (A) at 50 mg/kg/BID Compound (A), or administration of cytarabine (Ara-C), over an 18-day study period. At the end of the study period, animals were sacrificed and the tumors harvested.

[3] = system: relapsed or refractory T-cell lymphoma; experiment: Phase I/Ib study in patients with relapsed or refractory T-cell lymphoma (PTCL and CTCL); format: in vivo, human; details: for ORR (objective response rate) / ORR (objective response rate), patients: oral BID
Procedure: This is a Phase I/Ib, 3+3 design study in patients with relapsed or refractory T-cell lymphoma
Compound (A) (tenalisib) was given orally twice a day in 28-day cycles and dose-limiting toxicities (DLTs) were assessed during the first cycle.
Intra-patient dose escalation was allowed following safety of higher doses. • Primary Objectives: The Safety, Pharmacokinetics (PK), Maximum Tolerated Dose (MTD) • Secondary Objectives: Pharmacodynamics, Overall response rate (ORR), Duration of response (DOR)
Histologically confirmed T-cell Non-Hodgkin's lymphoma.
Relapsed after, or refractory to ≥1 prior treatments, and not eligible for transplantation and or approved therapy; ECOG performance status ≤2; patient with measurable or evaluable disease; Adequate organ system function: ANC ≥750/μL; platelets ≥50 K/μL.
Prior therapy that inhibits PI3K/BTK/mTOR were part of exclusion criteria.

[4] = system: phospho-AKT (Ser473); experiment: Reduction of pAKT in T-cell lymphoma cell lines (Western blotting); format: cell-based; details: Western blot normalized to actin, FIG. 2
Procedure: AKT, a serine threonine kinase mediates the downstream effects of PI3K activity and modulates several cell processes including survival and growth. Reduction of pAKT by Compound (A) in representative cell lines was determined by Western blotting using a phospho-AKT (Ser^473) antibody. Band intensity was measured and quantified using ImageJ software and normalized to actin.

[5] = system: pAKT; experiment: pAKT in patient-derived primary malignant T cells (Phosphoflow); format: cell-based, human; details: CTCL donors n=6, 1.5 h incubation then cytokine activation 30 min; FIG. 4
Procedure: (§1) The effect of Compound (A) on pAKT in patient-derived primary cells was also studied. Malignant T cells from Cutaneous T-cell Lymphoma (CTCL) patient donors (n=6) were purified using fluorescence-activated cell sorting (FACS) and cultured overnight in RPMI/1% BSA. Cells were incubated with desired concentrations of Compound (A) for 1.5 h followed by activation with a cytokine mixture (20 ng/ml IL2+5 ng/ml IL7+10 ng/ml IL15+10% FBS) for 30 min. pAKT was estimated using Phosphoflow and normalized to total AKT. Data were analyzed using Prism 5.0 software analysis. For apoptosis assays, FACS purified cells from CTCL donors (n=4) were cultured in RPMI/10% FBS+20 ng/ml IL2+5 ng/ml IL7+10 ng/ml IL15 with and without Compound (A), LY294002, or camptothecin for 48 h. Apoptosis was assayed by Annexin V/PI staining.

[6] = system: T-cell lymphoma cell lines (Jurkat, MOLT-4, CCRF-CEM, HuT-78, HuT-102, Sez4 and HH); experiment: Anti-proliferative effect in T-cell lymphoma cell lines (MTT assay); format: cell-based; details: 48-72 h incubation, FIG. 1
Procedure: Compound (A) was tested across a panel of T-cell lymphoma cell lines (Jurkat, MOLT-4, CCRF-CEM, HuT-78, HuT-102, Sez4 and HH). Cells were plated in 96-well plates and incubated with desired concentrations of Compound A for 48-72 h. At the end of the incubation period, MTT ((3-(4,5-dimethylthiazol-2-yl)-2,5-diphenyltetrazolium bromide)) was added. The plate was placed on a shaker for 5 min to mix the formazan and the optical density at 560 nm was measured on a spectrophotometer. Data were plotted using Graphpad prism for calculation of the IC50 concentrations.

[7] = system: Malignant T cells from Cutaneous T-cell Lymphoma (CTCL) patient donors; experiment: Apoptosis by Annexin V/PI staining in purified malignant T-cells from CTCL donors; format: cell-based, human; details: CTCL donors n=4, 48 h, FIG. 5
Procedure: as §1

In the case of `CC[C@H](Nc1ncnc2[nH]cnc12)c1oc2ccccc2c(=O)c1-c1cccc(F)c1` [Compound (A), (S)-2-(1-((9H-purin-6-yl)amino)propyl)-3-(3-fluorophenyl)-4H-chromen-4-one], the caspase-3 induction [1] was “dose-dependent increase in caspase-3”, the tumor growth ([2]; 50 mg/kg BID oral, 18-day study period, vs vehicle, FIG. 6) was “significantly delayed tumor growth; also recorded: significant delay in tumor growth” and the “tolerability (body weight, adverse effects)” value ([2]; mice, daily dose of 50 mg/kg) was “without body weight loss or noticeable adverse effects”. For the same compound, the “CR (complete response)” value ([3]; All, 58 treated/35 evaluable) was “(9) %”, the “CR (complete response), patients” value ([3]; All, 58 treated/35 evaluable) was 3 n and the “DCR (CR + PR + SD)” value ([3]; All, 58 treated/35 evaluable) was 74%. The “DCR (CR + PR + SD), patients” value ([3]; All, 58 treated/35 evaluable) was 26 n, the “PD (progressive disease)” value ([3]; All, 58 treated/35 evaluable) was 23% and the “PD (progressive disease), patients” value ([3]; All, 58 treated/35 evaluable) was 8 n. The “PR (partial response)” value ([3]; All, 58 treated/35 evaluable) was “(37) %”, the “PR (partial response), patients” value ([3]; All, 58 treated/35 evaluable) was 13 n and the “ORR (objective response rate)” value ([3]; All, 58 treated/35 evaluable) was “(46) %”. The “ORR (objective response rate), patients” value ([3]; All, 58 treated/35 evaluable) was 16 n, the “DCR (CR + PR + SD)” value ([3]; CTCL, 30 treated/20 evaluable) was 80% and the “DCR (CR + PR + SD), patients” value ([3]; CTCL, 30 treated/20 evaluable) was 16 n. For the same compound, the “PD (progressive disease)” value ([3]; CTCL, 30 treated/20 evaluable) was 20%, the “PD (progressive disease), patients” value ([3]; CTCL, 30 treated/20 evaluable) was 4 n and the “PR (partial response)” value ([3]; CTCL, 30 treated/20 evaluable) was “(45) %”. The “PR (partial response), patients” value ([3]; CTCL, 30 treated/20 evaluable) was 9 n, the “ORR (objective response rate)” value ([3]; CTCL, 30 treated/20 evaluable) was “(45) %” and the “ORR (objective response rate), patients” value ([3]; CTCL, 30 treated/20 evaluable) was 9 n. The “CR (complete response)” value ([3]; PTCL, 28 treated/15 evaluable) was “(20) %”, the “CR (complete response), patients” value ([3]; PTCL, 28 treated/15 evaluable) was 3 n and the “DCR (CR + PR + SD)” value ([3]; PTCL, 28 treated/15 evaluable) was 74%. The “DCR (CR + PR + SD), patients” value ([3]; PTCL, 28 treated/15 evaluable) was 10 n, the “PD (progressive disease)” value ([3]; PTCL, 28 treated/15 evaluable) was 27% and the “PD (progressive disease), patients” value ([3]; PTCL, 28 treated/15 evaluable) was 4 n. The “PR (partial response)” value ([3]; PTCL, 28 treated/15 evaluable) was “(27) %”, the “PR (partial response), patients” value ([3]; PTCL, 28 treated/15 evaluable) was 4 n and the “ORR (objective response rate)” value ([3]; PTCL, 28 treated/15 evaluable) was “(47) %”. For the same compound, the “ORR (objective response rate), patients” value ([3]; PTCL, 28 treated/15 evaluable) was 7 n, the “endogenous pAKT expression” value [4] was “dose-dependent reduction” and the “inhibition of pAKT in purified malignant T-cells” value [5] was “dose-dependent inhibition of pAKT”. For the same compound, the “proliferation / growth of T-lymphoma cell lines” value [6] was “dose-dependent reduction in proliferation” and the “apoptosis in purified malignant T-cells” value [7] was “dose-dependent increases in apoptosis”.
